Assay results as given in PMC9671962 (Communications Biology, 2022).
Several values for one entry are separate records, joined by “and”; a condition that tells them apart may be missing. Equal entries are not always repeated.

Tests used:
[1] = system: NB-SDx; assay: Pre-clinical efficacy study, NB-SDx PDX; type: in vivo; settings: single mouse
Description: (§1) Patient demographics and genetic characteristics are listed in (Supplementary Tables 1, 2)[17]. The maximum tolerated dose (MTD) was determined to be 36 MBq/kg administered by intra-peritoneal injection twice weekly for a total of 4 dose fractions and this fractionated regimen was used in all studies (Supplementary Fig. 1)[18],[19]. […] Nine of 11 PDX models were MYCN amplified (Fig. 1b), which is a hallmark of high-risk neuroblastoma. Tumor response was measured as the maximum percent decrease in tumor volume after treatment and event-free survival (EFS) was measured by the area over the curve method with tumor events pre-defined by tumor growth exceeding 2 cm[3],[18].
(§2) The use of 2 mice per arm was based on the previously reported statistical analysis. PDX tumors were implanted into the right flank of 5 to 6-weeks old female mice weighing about 20–25 grams. […] Two additional dose levels of 12, and 24 MBq/kg/fraction were assessed in a subset of models and were administered as stated above. In two models treated at the 24 MBq/kg/fraction dose level we re-challenged tumor response at the time of tumor progression with an additional 4 dose fractions at 24 MBq/kg/fraction given twice weekly. Doses were prepared in 500 µL total volume. An equal volume of saline was used for the vehicle group. Tumors were measured using a digital caliper at the initiation of the study and two times per week during the treatment period. Tumor volumes were calculated as volume = ([…]∗0.5236)/1000. Weights were obtained twice weekly and mice were monitored daily for signs of toxicity. […] Tumor response was assessed by best response defined as greatest reduction in tumor volume following the last dose and is presented as percent change in tumor volume. Event-free survival was determined by area over the curve method that calculates the time to tumor event, which was defined as tumors reaching or exceeding a size ≥ 2 cm^3.
Animal studies were performed in female mice due to the lack of sex-related differences for [^211At]PTT tolerability from initial dose response studies performed in female and male mice. Female mice were chosen due to their underlying behavior towards other study subjects that reduced nonstudy-related causes for decreased wellness. Pre-clinical efficacy studies were performed through “single mouse testing” to more closely recapitulate a clinical trial. […] Number size for treatment groups was determined by model tumor growth reproducibility, which was previously shown to have less than 5% normal variation with at least two animals. […] Event free survival was measured by area over the curve method to quantify time to event, which was set as tumor growth exceeding 2 cm[3],[19]. […]

[2] = system: COG-N-440x; assay: Pre-clinical efficacy study, COG-N-440x PDX; type: in vivo; settings: single mouse
Description: as §1, §2
(§3) Animal studies were performed in female mice due to the lack of sex-related differences for [^211At]PTT tolerability from initial dose response studies performed in female and male mice. Female mice were chosen due to their underlying behavior towards other study subjects that reduced nonstudy-related causes for decreased wellness. Pre-clinical efficacy studies were performed through “single mouse testing” to more closely recapitulate a clinical trial. […] Number size for treatment groups was determined by model tumor growth reproducibility, which was previously shown to have less than 5% normal variation with at least two animals. Statistical tests for tumor response and event-free survival (EFS) were performed as a grouped analysis that included all tumor models treated at each respective dose level (n = 2 per model per dose level). Statistical differences between treatment groups for tumor response was performed by paired-model T-test that compared reduction in tumor volume for the 36 MBq/kg dose level vs. 24 MBq/kg or 12 MBq/kg. Event free survival was measured by area over the curve method to quantify time to event, which was set as tumor growth exceeding 2 cm[3],[19]. Differences in EFS were tested across all treated models for each respective dose level, and against untreated controls, by paired-model ANOVA analysis. Associations of drug target expression and response were performed by linear regression analysis of EFS and PARP1 mRNA expression. Genetic signatures were visually presented as a function of EFS and no statistical tests were applied. Blood and marrow toxicity studies were performed with n = 5 sample sizes and powered to detect >20% differences between untreated controls and treated animals. Results were tested for significance by one-way ANOVA comparison from untreated controls. Marrow colony formation assays were performed in replicates of 2 for each mouse subject, dependent on marrow isolation, and all replicates are included in final analyses. […]

[3] = system: COG-N-415x; assay: Pre-clinical efficacy study, COG-N-415x PDX; type: in vivo; settings: single mouse
Description: as §1, §2, §3

[4] = system: marrow progenitor cells (GEMM, GM); assay: Marrow toxicity by marrow progenitor colony formation assay; type: in vivo, CB57/BL6 mice
Description: Toxicity studies were done in nontumor bearing CB-17 SCID mice (Taconic Biosciences). […] Each arm had n = 10 mice (5 male, 5 female mice). […] The vehicle group received an equal volume of saline (placebo). Weights were obtained twice weekly and mice were monitored daily for signs of toxicity. […] On target hematological and marrow toxicity which was evaluated by complete blood counts and marrow colony formation assay. An additional study was performed under identical conditions to evaluate additive dose effects. […] Each treatment group was composed of equal numbers of male and female mice to rule out gender-specific effects (n = 4 per treatment group per time point). Mice were followed for signs of acute toxicity for 2 weeks and 4 weeks before euthanasia. An additional group (n = 4) treated at 36 MBq/kg was euthanized after 72 h to assess early signs of toxicity by colony formation assays. This time course was chosen to best capture the nadir of bone marrow suppression. After euthanasia, blood was collected and femurs were dissected and processed for histopathology and bone marrow evaluation.
After euthanasia, mouse hind limbs were dissected as previously described for bone and marrow isolation. The other hind limb was processed for bone marrow via centrifugation. Bone marrow pellets were resuspended in 1 X RBC Lysis Buffer (BioLegend, San Diego, CA) and rocked on a tilt-table for 5 minutes. Bone marrow cell pellet was isolated by centrifugation at 13,000 RPM on a tabletop centrifuge for 1 minute. Cells were resuspended in IMDM with 2% FBS (Gibco, ThermoFisher Scientific, Grand Island, New York) and counted on a Countess II Automated Cell Counter (ThermoFisher Scientific, Grand Island, NY).
Colony formation assays were performed per manufacturer’s protocol. In brief, 1.8 ×10^5 bone marrow cells suspended in 300 µL IMDM with 2% FBS were combined with 3 mL of Mouse Methylcellulose Complete Media (R&D Systems Inc, Minneapolis, MN). Gel mixture was syringe-pipetted in duplicate to lids of 6 cm culture dishes and housed with a 6 cm sterile water dish within a 25 cm culture dish. Cultures were incubated at 37 °C for 8 days prior to analysis on a microscope. Colonies were counted by one individual per manufacturer’s recommended protocol. Of note, at least 30 cells were required to call a colony positive.

[5] = 24 MBq/kg/fraction x 4 fractions
[6] = 36 MBq/kg/fraction x 4 fractions
[7] = 12 MBq/kg/fraction x 4 fractions
[8] = 4 wk after 2 dose fractions at 36 MBq/kg/fraction
[9] = 36 MBq/kg x 4 dose fractions, 72 hours post-treatment, replicate
[10] = 48 MBq/kg x 4 dose fractions, 72 hours post-treatment, replicate
[11] = 60 MBq/kg x 4 dose fractions, 72 hours post-treatment, replicate
[12] = dose escalation 36, 48, 60 MBq/kg x 4 fractions

Compound: O=C1NCCn2c(-c3ccc([211At])cc3)nc3cccc1c32 [[^211At]PTT, Astatine-211-parthanatine]
- EFS by AOC method [1, 5]: 44.1 days and 46.5 days and 44.0589 days and 46.4742 days
- Tumor response (% growth from study initiation at ~ 200 mm3) [1, 5]: -80.9524% and -80%
- EFS by AOC method [1, 6]: 59.408 days and 51.1551 days
- Tumor response (% growth from study initiation at ~ 200 mm3) [1, 6]: -96.9697% and -85.7143%
- EFS by AOC method [2, 7]: 28.3679 days and 26.6227 days
- Tumor response (% growth from study initiation at ~ 200 mm3) [2, 7]: -72.727% and -75.758%
- EFS by AOC method [2, 5]: 50.2168 days and 42.5399 days
- Tumor response (% growth from study initiation at ~ 200 mm3) [2, 5]: -95.833% and -100%
- EFS by AOC method [2, 6]: 78.8444 days and 65.1924 days
- Tumor response (% growth from study initiation at ~ 200 mm3) [2, 6]: -100%
- EFS by AOC method [3, 7]: 14.1951 days and 16.6777 days
- Tumor response (% growth from study initiation at ~ 200 mm3) [3, 7]: 74.1936% and -21.7391%
- EFS by AOC method [3, 5]: 27.6 days and 26.9 days and 27.5972 days and 26.9655 days
- Tumor response (% growth from study initiation at ~ 200 mm3) [3, 5]: -80.7692% and -84.6154%
- EFS by AOC method [3, 6]: 38.3761 days and 73.0746 days
- Tumor response (% growth from study initiation at ~ 200 mm3) [3, 6]: -100% and -94.4444%
- time by which marrow recovery stabilized, GEMM and GM progenitor cells ([4]; 3 dose fractions at 36 MBq/kg): ≤ 2 weeks
- GEMM (CFU) [4, 8]: 4 CFU and 7.5 CFU and 6 CFU and 5 CFU
- GM (CFU) [4, 8]: 22 CFU and 36.5 CFU and 33 CFU and 24 CFU and 38 CFU
- GEMM (CFU) [4, 9]: 7 CFU and 3 CFU and 2 CFU and 8 CFU and 14 CFU and 5 CFU and 9 CFU
- GM (CFU) [4, 9]: 15 CFU and 10 CFU and 23 CFU and 13 CFU and 9 CFU
- GEMM (CFU) [4, 10]: 12 CFU and 5 CFU and 7 CFU and 3 CFU and 6 CFU
- GM (CFU) [4, 10]: 1 CFU and 5 CFU and 2 CFU and 12 CFU and 6 CFU and 7 CFU
- GEMM (CFU) [4, 11]: 2 CFU and 3 CFU and 8 CFU and 7 CFU and 6 CFU and 4 CFU
- GM (CFU) [4, 11]: 5 CFU and 8 CFU and 7 CFU and 4 CFU
- GEMM (CFU) ([4]; 72 hrs after 2 dose fractions at 36 MBq/kg/fraction): 4 CFU and 6 CFU and 3 CFU and 5 CFU and 4.5 CFU
- colony formation of early marrow progenitor cells (GEMM) [4, 12]: reduced only at the highest dose level evaluated (60 MBq/kg)
- colony formation of granulocyte and megakaryocyte progenitors [4, 12]: reduction in colony formation at all dose levels evaluated
- time of full recovery of colony formation ([4]; post treatment, 3 dose fractions at 36 MBq/kg): 4 weeks
